In brackets after ≈: the same amount, converted by molar mass. Where two headings read alike, the source gives them in different places.
Assays:
Type in all cases: physicochemical
[1] = Stability of reconstituted solution of the particulate composition (5 mg/mL)
Protocol: The stability of the reconstituted solution of the particulate composition of Compound 1 of Example 1 was determined up to 4 hours. Duplicate vials of Compound 1 were reconstituted each with 5 mL of Water for Injection, USP.

[2] = Infusion solution stability in 0.9% Sodium Chloride for Injection; details: for Change in concentration: initial vs 4 hours at ambient temperature and light
Protocol: For the infusion solution stability study, duplicate dilutions of the reconstituted Compound 1 in 0.9% Sodium Chloride for Injection, LISP to provide the low (0.01 mg/mL) and high dose (0.6 mg/mL) were prepared. Infusion bags and sets used were made of polyolefin and polyethylene-lined respectively. To bracket the concentrations to be used in the clinic, two concentrations (0.01 mg/mL and 0.6 mg/mL of Compound 1) representing lowest and highest doses were selected. The stability of low and high dose infusion bag dilution is summarized in Table 3 and Table 4, respectively.

[3] = Long-term storage stability in co-solvents PEG 300 and PEG 400
[4] = Equilibrium solubility in various pharmaceutical excipients
[5] = reconstituted solution 5 mg/mL, 4 hours
[6] = reconstituted solution 5 mg/mL, Initial
[7] = reconstituted solution, initial vs 4 hours at room temperature and light
[8] = infusion solution 0.01 mg/mL, 4 hours
[9] = infusion solution 0.01 mg/mL, Initial
[10] = infusion solution 0.6 mg/mL, 4 hours
[11] = infusion solution 0.6 mg/mL, Initial

CN(C)C/C=C/C(=O)Nc1ccc(C(=O)N[C@@]2(C)CCC[C@@H](Nc3ncc(Cl)c(-c4c[nH]c5ccccc45)n3)C2)nc1 [Compound 1, N-((1S,3R)-3-(5-chloro-4-(1H-indol-3-yl)pyrimidin-2-ylamino)-1-methylcyclohexyl)-5-((E)-4-(dimethylamino)but-2-enamido)picolinamide]
Compound 1 concentration [1, 5]: 4.48 mg/mL | Impurities, RRT 1.04 [1, 5]: RRT 1.04 = 0.70% a/a | Impurities, RRT 1.23 [1, 5]: RRT 1.23 = 0.07% a/a | Impurities, RRT 1.44 [1, 5]: RRT 1.44 = 0.59% a/a | Impurities, RRT 1.47 [1, 5]: RRT 1.47 = 0.42% a/a | Impurities, RRT 1.61 [1, 5]: RRT 1.61 = 0.09% a/a | Impurities, Total [1, 5]: Total = 1.9% a/a | pH [1, 5]: 3.2 | Appearance ([1]; reconstituted solution 5 mg/mL, 4 hours, room temperature and light): Yellowish Clear solution | Compound 1 concentration [1, 6]: 4.75 mg/mL | Impurities, RRT 1.04 [1, 6]: RRT 1.04 = 0.71% a/a | Impurities, RRT 1.23 [1, 6]: RRT 1.23 = 0.10% a/a | Impurities, RRT 1.46 [1, 6]: RRT 1.46 = 0.55% a/a | Impurities, RRT 1.48 [1, 6]: RRT1.48 = 0.4 % a/a | Impurities, RRT 1.62 [1, 6]: RRT1.62 = 0.0 % a/a | Impurities, Total [1, 6]: Total = 1.9% a/a | pH [1, 6]: 3.2 | Appearance ([1]; reconstituted solution 5 mg/mL, Initial, n = 2): Yellowish Clear solution | Change in appearance and pH [1, 7]: unchanged | Change in concentration of Compound 1 [1, 7]: slight decrease | Change in impurities [1, 7]: no measurable change | Change in concentration ([2]; high dose (0.6 mg/mL)): no changes | Appearance [2, 8]: Yellowish Clear solution | Compound 1 concentration [2, 8]: 0.0099 mg/mL | pH [2, 8]: 8.1 | Appearance [2, 9]: Yellowish Clear solution | Compound 1 concentration [2, 9]: 0.0096 mg/mL | pH [2, 9]: 7.6 | Appearance [2, 10]: Yellowish Clear | Compound 1 concentration [2, 10]: 0.551 mg/mL | Impurities, RRT 1.03 [2, 10]: RRT 1.03 = 0.71% a/a | Impurities, RRT 1.22 [2, 10]: RRT 1.22 = 0.06% a/a | Impurities, RRT 1.43 [2, 10]: RRT = 1.43 = 0.51% a/a | Impurities, RRT 1.60 [2, 10]: RRT = 1.60 = 0.08% a/a | Impurities, Total [2, 10]: Total = 1.4% a/a | pH [2, 10]: 3.6 | Appearance [2, 11]: Yellowish Clear | Compound 1 concentration [2, 11]: 0.552 mg/mL | Impurities, RRT 1.03 [2, 11]: RRT 1.03 = 0.71% a/a | Impurities, RRT 1.22 [2, 11]: RRT 1.22 = 0.06% a/a | Impurities, RRT 1.43 [2, 11]: RRT = 1.43 = 0.51% a/a | Impurities, RRT 1.60 [2, 11]: RRT = 1.60 = 0.08% a/a | Impurities, Total [2, 11]: Total = 1.4% a/a | pH [2, 11]: 3.6 | Change in concentration ([2]; low dose (0.01 mg/mL)): no changes | Change in pH ([2]; low dose dilution (0.01 mg/mL), initial vs 4 hours): increase | Stability on long-term storage [3]: unstable | solubility ([4]; 50 mM Borate pH 10): <LOQ | solubility ([4]; 50 mM KCl, pH 2, simulated gastric fluid, thermodynamic from solid, 50 mM KCl, pH 2, read-out: Solubility): 3600 µg/mL (≈ 6.13 mM) | solubility ([4]; 50 mM Phosphate pH 8): <LOQ | solubility ([4]; 50 mM citrate, pH 4, aqueous buffer, thermodynamic from solid, 50 mM Citrate pH 4, read-out: Solubility): 3.7 µg/mL (≈ 0.0063 mM) | solubility ([4]; 50 mM phosphate buffer, pH 6, aqueous buffer, thermodynamic from solid, 50 mM Phosphate pH 6, read-out: Solubility): 1.9 µg/mL (≈ 0.00324 mM) | solubility ([4]; 10% Captisol in phosphate buffer, pH 5.5, aqueous with cosolvent or surfactant or cyclodextrin, thermodynamic from solid, 10% Captisol, pH 5.5 (phosphate buffer), read-out: Solubility): 4600 µg/mL (≈ 7.83 mM) | solubility ([4]; 20% Captisol in phosphate buffer, pH 5.5, aqueous with cosolvent or surfactant or cyclodextrin, thermodynamic from solid, 20% Captisol, pH 5.5 (phosphate buffer), read-out: Solubility): 5900 µg/mL (≈ 10 mM) | solubility ([4]; 20% Captisol, 0.1% Tween 80, pH adjusted with HCl, pH 3.5, aqueous with cosolvent or surfactant or cyclodextrin, thermodynamic from solid, 20% Captisol, 0.1% Tween 80, pH 3.5, (HCl), read-out: Solubility): > 10000 µg/mL | Solubility (in words) ([4]; Captisol, especially with acidic conditions (pH 3-4) and Tween 80): good solubility | solubility ([4]; PEG 300): >19400 µg/mL | solubility ([4]; PEG 300, organic solvent or mixture, thermodynamic from solid, PEG 300, read-out: Solubility): > 19000 µg/mL | solubility ([4]; PEG 400): >20800 µg/mL | solubility ([4]; PEG 400, organic solvent or mixture, thermodynamic from solid, PEG 400, read-out: Solubility): > 19000 µg/mL | solubility ([4]; Sorensen phosphate Buffer): <LOQ | solubility ([4]; Tween 80, aqueous with cosolvent or surfactant or cyclodextrin, thermodynamic from solid, Tween 80, read-out: Solubility): 18300 µg/mL (≈ 31.2 mM) | solubility ([4]; dehydrated alcohol, organic solvent or mixture, thermodynamic from solid, Dehydrated Alcohol, read-out: Solubility): 3600 µg/mL (≈ 6.13 mM) | Solubility (in words) ([4]; in water): poorly soluble | solubility ([4]; propylene glycol, organic solvent or mixture, thermodynamic from solid, Propylene Glycol, read-out: Solubility): 4000 µg/mL (≈ 6.81 mM) | solubility ([4]; t-butanol, organic solvent or mixture, thermodynamic from solid, t-Butanol, read-out: Solubility): 3200 µg/mL (≈ 5.45 mM) | solubility ([4]; water, thermodynamic from solid, Water, read-out: Solubility): 0.12 µg/mL (≈ 0.000204 mM)

Reference: patent US11083728B2, “Compositions of cyclin dependent kinase 7 (CDK7) inhibitor” (Syros Pharmaceuticals, Inc., priority 2017, dated 2021)
